According to patent US20190010158A1, “ANTITUMOR EFFECT POTENTIATOR COMPRISING PYRROLOPYRIMIDINE COMPOUND” (TAIHO PHARMACEUTICAL CO., LTD, priority 2015, published 2019):

Experiments:
[1] = system: tumor cell lines shown in Table 44; assay: Example 12: combined use with platinum-based antitumor agent, cell growth inhibition test (IC50 ratio, CI); settings: for IC50 Ratio: IC50 of Reference Example Compound 55 : IC50 of other compound = 1:value; for CI: at ED50; for Comprehensive Evaluation: combined use with Reference Example Compound 55
[2] = system: tumor cell lines shown in Table 48; assay: Example 14: combined use with alkylating agent, cell growth inhibition test (IC50 ratio, CI); assay type: cell-based; settings: for IC50 Ratio: IC50 of Reference Example Compound 55 : IC50 of other compound = 1:value; for CI: at ED50; for Comprehensive Evaluation: combined use with Reference Example Compound 55
[3] = system: tumor cell lines shown in Table 32; assay: Example 6: combined use with immunomodulator, cell growth inhibition test (IC50 ratio, CI); assay type: cell-based; settings: MM.1S; for IC50 Ratio: IC50 of Reference Example Compound 55 : IC50 of other compound = 1:value; for CI: at ED50; for Comprehensive Evaluation: combined use with Reference Example Compound 55
[4] = system: human acute T lymphoblastic leukemia CCRF-CEM cell lines; assay: Cell growth inhibition 1 (CellTiter-Glo); assay type: cell-based; settings: culture with test compound 72 hours
[5] = target: T1, NAE (heterodimer of APPBP1 and UBA3) (Homo sapiens, UniProt Q8TBC4); assay: Nedd8 conjugation inhibitory activity (AlphaScreen); assay type: biochemical; settings: purified NAE, GST-UBC12, ATP, Biotin-Nedd8, reaction 90 minutes
T1 construct: amino acids 1 to 463 of human UBA3 protein; made in house; host or cells: Sf9 insect cells (baculovirus co-infection) for NAE; E. coli BL21 (DE3) for GST-UBC12
T1 sequence (Q8TBC4 1-463): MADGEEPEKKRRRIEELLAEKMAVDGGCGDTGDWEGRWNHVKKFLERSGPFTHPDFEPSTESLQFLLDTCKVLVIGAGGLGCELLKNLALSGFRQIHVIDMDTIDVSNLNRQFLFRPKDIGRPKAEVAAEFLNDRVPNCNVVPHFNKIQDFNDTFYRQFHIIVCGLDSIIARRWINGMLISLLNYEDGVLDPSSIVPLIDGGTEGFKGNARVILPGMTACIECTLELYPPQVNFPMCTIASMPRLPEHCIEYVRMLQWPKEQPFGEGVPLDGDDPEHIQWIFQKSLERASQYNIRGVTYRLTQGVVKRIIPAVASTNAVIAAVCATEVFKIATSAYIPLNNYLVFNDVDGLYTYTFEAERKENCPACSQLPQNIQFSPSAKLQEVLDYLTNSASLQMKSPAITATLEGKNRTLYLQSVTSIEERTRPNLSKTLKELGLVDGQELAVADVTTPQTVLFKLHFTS
T1 sequence (Q13564 1-534 partner): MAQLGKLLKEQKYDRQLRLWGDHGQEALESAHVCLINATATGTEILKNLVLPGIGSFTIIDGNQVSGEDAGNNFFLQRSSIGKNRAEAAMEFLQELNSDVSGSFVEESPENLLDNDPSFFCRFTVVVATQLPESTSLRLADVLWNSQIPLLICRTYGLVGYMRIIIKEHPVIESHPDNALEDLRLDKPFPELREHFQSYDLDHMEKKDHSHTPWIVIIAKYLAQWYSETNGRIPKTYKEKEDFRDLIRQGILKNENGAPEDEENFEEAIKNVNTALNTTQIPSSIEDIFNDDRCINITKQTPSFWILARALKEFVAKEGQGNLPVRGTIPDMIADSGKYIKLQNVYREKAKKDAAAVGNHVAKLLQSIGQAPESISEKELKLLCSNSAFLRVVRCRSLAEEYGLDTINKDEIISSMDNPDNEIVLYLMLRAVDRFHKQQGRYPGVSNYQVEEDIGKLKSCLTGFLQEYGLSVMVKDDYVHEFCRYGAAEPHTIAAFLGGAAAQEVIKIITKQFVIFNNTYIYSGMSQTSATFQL

[6] = MV4-11, Reference Example Compound 55:other compound 1:3000
[7] = MV4-11, Reference Example Compound 55:other compound 1:9000

## N.N.O=C([O-])C1(C(=O)[O-])CCC1.[Pt+2] [Carboplatin, carboplatin]
[1]; A549
  IC50 Ratio: 38
  Comprehensive Evaluation: Slight
[1]; A549, Reference Example Compound 55:other compound 1:17
  CI: 0.41
[1]; A549, Reference Example Compound 55:other compound 1:50
  CI: 0.87

## N.N.[Cl][Pt][Cl] [Cisplatin, cisplatin]
[1]; HCT116
  IC50 Ratio: 343
  Comprehensive Evaluation: Moderate
[1]; HCT116, Reference Example Compound 55:other compound 1:333
  CI: 0.44
[1]; HCT116, Reference Example Compound 55:other compound 1:1000
  CI: 0.72

## CN(C)/N=N/c1[nH]cnc1C(N)=O [Dacarbazine, dacarbazine]
[2]; MV4-11
  IC50 Ratio: 6582
  Comprehensive Evaluation: Additive (0.9-1.10)
[2]; [6]
  CI: 0.92
[2]; [7]
  CI: 0.95

## O=P1(NCCCl)OCCCN1CCCl (stereo not drawn) [Ifosfamide, ifosfamide]
[2]; MV4-11
  IC50 Ratio: 6315
  Comprehensive Evaluation: Synergism (0.3-0.7)
[2]; [6]
  CI: 0.57
[2]; [7]
  CI: 0.60

## Nc1cccc2c1CN(C1CCC(=O)NC1=O)C2=O (stereo not drawn) [Lenalidomide, lenalidomide]
[3]
  IC50 Ratio: 14
  Comprehensive Evaluation: Moderate
[3]; Reference Example Compound 55:other compound 1:10
  CI: 0.75
[3]; Reference Example Compound 55:other compound 1:30
  CI: 0.69

## O=C1[O][Pt]2([NH][C@@H]3CCCC[C@H]3[NH]2)[O]C1=O [Oxaliplatin, oxaliplatin]
[1]; HL-60
  IC50 Ratio: 132
  Comprehensive Evaluation: Synergism (0.3-0.7)
[1]; HL-60, Reference Example Compound 55:other compound 1:100
  CI: 0.65
[1]; HL-60, Reference Example Compound 55:other compound 1:300
  CI: 0.70

## Nc1cccc2c1C(=O)N(C1CCC(=O)NC1=O)C2=O (stereo not drawn) [Poma1idomide, pomalidomide]
[3]
  IC50 Ratio: 3
  Comprehensive Evaluation: Moderate
[3]; Reference Example Compound 55:other compound 1:1
  CI: 0.81
[3]; Reference Example Compound 55:other compound 1:3
  CI: 0.66

## Nc1ncnc2c1c(C#Cc1c(F)cc(N3CCCC3=O)cc1F)cn2[C@@H]1O[C@H](CNS(N)(=O)=O)[C@@H](O)[C@H]1O [Reference Example 33, 4-Amino-5-[2-[2,6-difluoro-4-(2-oxopyrrolidin-1-yl)phenyl]ethynyl]-7-[(2R,3R,4S,5R)-3,4-dihydroxy-5-[(sulfamoylamino)methyl]tetrahydrofuran-2-yl]pyrrolo[2,3-d]pyrimidine]
[4]
  IC50: 37 nM
[5]
  IC50: ≤ 0.003 µM

## Nc1ncnc2c1c(C#Cc1c(F)cc(N3CC(O)C3)cc1F)cn2[C@@H]1O[C@H](CNS(N)(=O)=O)[C@@H](O)[C@H]1O [Reference Example 39, 4-Amino-5-[2-[2,6-difluoro-4-(3-hydroxyazetidin-1-yl)phenyl]ethynyl]-7-[(2R,3R,4S,5R)-3,4-dihydroxy-5-[(sulfamoylamino)methyl]tetrahydrofuran-2-yl]pyrrolo[2,3-d]pyrimidine]
[4]
  IC50: 7.8 nM
[5]
  IC50: ≤ 0.003 µM

## Nc1ncnc2c1c(C#Cc1c(F)cc(N3CCC[C@@H](O)C3)cc1F)cn2[C@@H]1O[C@H](CNS(N)(=O)=O)[C@@H](O)[C@H]1O [Reference Example 40, 4-Amino-5-[2-[2,6-difluoro-4-[(3R)-3-hydroxy-1-piperidyl]phenyl]ethynyl]-7-[(2R,3R,4S,5R)-3,4-dihydroxy-5-[(sulfamoylamino)methyl]tetrahydrofuran-2-yl]pyrrolo[2,3-d]pyrimidine]
[4]
  IC50: 19 nM
[5]
  IC50: ≤ 0.003 µM

## Nc1ncnc2c1c(C#Cc1c(F)cc(N3CCS(=O)(=O)CC3)cc1F)cn2[C@@H]1O[C@H](CNS(N)(=O)=O)[C@@H](O)[C@H]1O [Reference Example 74, 4-[4-[2-[4-amino-7-[(2R,3R,4S,5R)-3,4-dihydroxy-5-[(sulfamoylamino)methyl]tetrahydrofuran-2-yl]pyrrolo[2,3-d]pyrimidin-5-yl]ethynyl]-3,5-difluoro-phenyl]-1,1-dioxo-1,4-thiazinane]
[4]
  IC50: 160 nM
[5]
  IC50: ≤ 0.003 µM

## CCS(=O)(=O)c1cc(N2CC[C@@H](F)C2)cc(F)c1C#Cc1cn([C@@H]2O[C@H](CNS(N)(=O)=O)[C@@H](O)[C@H]2O)c2ncnc(N)c12 [Reference Example 75, 4-Amino-7-[(2R,3R,4S,5R)-3,4-dihydroxy-5-[(sulfamoylamino)methyl]tetrahydrofuran-2-yl]-5-[2-[2-ethylsulfonyl-6-fluoro-4-[(3R)-3-fluoropyrrolidin-1-yl]phenyl]ethynyl]pyrrolo[2,3-d]pyrimidine]
[5]
  IC50: ≤ 0.003 µM

## COc1ccc(C#Cc2cn([C@@H]3C[C@H](CNS(N)(=O)=O)[C@@H](O)[C@H]3O)c3ncnc(N)c23)c(S(C)(=O)=O)c1 [Reference Example 113, 4-Amino-7-[(1R,2S,3R,4R)-2,3-dihydroxy-4-[(sulfamoylamino)methyl]cyclopentyl]-5-[2-(4-methoxy-2-methylsulfonyl-phenyl)ethynyl]pyrrolo[2,3-d]pyrimidine]
[5]
  IC50: ≤ 0.003 µM

## CCS(=O)(=O)c1cc(N2CCCC2)cc(F)c1C#Cc1cn([C@@H]2C[C@H](CNS(N)(=O)=O)[C@@H](O)[C@H]2O)c2ncnc(N)c12 [Reference Example 114, 4-Amino-7-[(1R,2S,3R,4R)-2,3-dihydroxy-4-[(sulfamoylamino)methyl]cyclopentyl]-5-[2-(2-ethylsulfonyl-6-fluoro-4-pyrrolidin-1-yl-phenyl)ethynyl]pyrrolo[2,3-d]pyrimidine]
[5]
  IC50: ≤ 0.003 µM

## CCOc1cccc(F)c1C#Cc1cn([C@@H]2C=C(CNS(N)(=O)=O)[C@@H](O)[C@H]2O)c2ncnc(N)c12 [Reference Example 129, 4-Amino-7-[(1R,4R,5S)-4,5-dihydroxy-3-[(sulfamoylamino)methyl]cyclopent-2-en-1-yl]-5-[2-(2-ethoxy-6-fluoro-phenyl)ethynyl]pyrrolo[2,3-d]pyrimidine]
[4]
  IC50: 2.1 nM
[5]
  IC50: ≤ 0.003 µM

## Nc1ncnc2c1c(C#Cc1ccccc1)cn2[C@@H]1O[C@H](COS(N)(=O)=O)[C@@H](O)[C@H]1O [Reference Example 131, [(2R,3S,4R,5R)-5-[4-amino-5-(2-phenylethynyl)pyrrolo[2,3-d]pyrimidin-7-yl]-3,4-dihydroxy-tetrahydrofuran-2-yl]methyl sulfamate]
[5]
  IC50: ≤ 0.003 µM

## Nc1ncnc2c1c(C#Cc1c(F)cccc1F)cn2[C@@H]1O[C@H](COS(N)(=O)=O)[C@@H](O)[C@H]1O [Reference Example 132, [(2R,3S,4R,5R)-5-[4-Amino-5-[2-(2,6-difluorophenyl)ethynyl]pyrrolo[2,3-d]pyrimidin-7-yl]-3,4-dihydroxy-tetrahydrofuran-2-yl]methyl sulfamate]
[4]
  IC50: 1.8 nM
[5]
  IC50: ≤ 0.003 µM

## O=C1CCC(N2C(=O)c3ccccc3C2=O)C(=O)N1 (stereo not drawn) [Thalidomide, thalidomide]
[3]
  IC50 Ratio: 6603
  Comprehensive Evaluation: Synergism (0.3-0.7)
[3]; Reference Example Compound 55:other compound 1:900 (only ratio calculated)
  CI: 0.63

## COc1cc2c(cc1O)CCN[C@]21CS[C@@H]2c3c(OC(C)=O)c(C)c4c(c3[C@H](COC1=O)N1[C@@H]2[C@H]2c3c(cc(C)c(OC)c3O)C[C@@H]([C@@H]1O)N2C)OCO4 [Trabectedin, trabectedin]
[2]; HOS
  IC50 Ratio: 0.2
  Comprehensive Evaluation: Additive (0.9-1.10)
[2]; HOS, Reference Example Compound 55:other compound 1:0.1
  CI: 0.83
[2]; HOS, Reference Example Compound 55:other compound 1:0.3
  CI: 1.01
